Assay results reported in PMC9776291 (Biomolecules, 2022).

Experiments:
Format in all cases: cell-based
GLUT4 = target: T1, GLUT4 (Homo sapiens, UniProt P14672); assay: [3H]-2-deoxyglucose uptake in GLUT-expressing HEK293 cells
T1 construct: gene SLC2A4
T1 sequence (P14672 1-509): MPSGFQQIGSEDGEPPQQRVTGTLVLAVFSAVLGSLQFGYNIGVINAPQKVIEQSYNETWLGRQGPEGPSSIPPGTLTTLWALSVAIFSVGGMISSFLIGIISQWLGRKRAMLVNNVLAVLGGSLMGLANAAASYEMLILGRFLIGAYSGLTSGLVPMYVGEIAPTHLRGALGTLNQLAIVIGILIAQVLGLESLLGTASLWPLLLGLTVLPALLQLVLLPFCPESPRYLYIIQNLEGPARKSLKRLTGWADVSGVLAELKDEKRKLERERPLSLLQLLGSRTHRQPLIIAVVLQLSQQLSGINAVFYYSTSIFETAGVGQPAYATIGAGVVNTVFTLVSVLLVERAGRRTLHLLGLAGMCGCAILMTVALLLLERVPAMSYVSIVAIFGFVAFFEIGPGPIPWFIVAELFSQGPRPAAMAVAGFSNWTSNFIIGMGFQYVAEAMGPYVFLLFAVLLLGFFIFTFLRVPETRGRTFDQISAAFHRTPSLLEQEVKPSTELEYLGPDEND

GLUT6 = target: T2, GLUT6 (Homo sapiens, UniProt Q9UGQ3); assay: as above
T2 construct: gene SLC2A6
T2 sequence (Q9UGQ3 1-507): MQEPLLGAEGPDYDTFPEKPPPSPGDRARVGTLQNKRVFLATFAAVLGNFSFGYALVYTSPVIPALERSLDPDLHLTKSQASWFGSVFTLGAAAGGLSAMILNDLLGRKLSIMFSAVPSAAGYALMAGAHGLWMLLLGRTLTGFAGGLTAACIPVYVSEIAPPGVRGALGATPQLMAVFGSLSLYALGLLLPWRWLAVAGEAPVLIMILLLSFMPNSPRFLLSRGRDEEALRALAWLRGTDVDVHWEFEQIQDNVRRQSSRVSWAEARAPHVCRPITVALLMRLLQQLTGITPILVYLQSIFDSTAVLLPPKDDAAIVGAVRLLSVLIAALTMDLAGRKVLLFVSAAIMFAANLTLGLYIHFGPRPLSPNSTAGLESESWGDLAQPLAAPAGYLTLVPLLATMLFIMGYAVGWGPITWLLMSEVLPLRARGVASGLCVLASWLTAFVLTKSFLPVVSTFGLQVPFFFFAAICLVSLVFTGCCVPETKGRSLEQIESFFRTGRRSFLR

GLUT10 = target: T3, GLUT10 (Homo sapiens, UniProt O95528); assay: as above
T3 construct: gene SLC2A10
T3 sequence (O95528 1-541): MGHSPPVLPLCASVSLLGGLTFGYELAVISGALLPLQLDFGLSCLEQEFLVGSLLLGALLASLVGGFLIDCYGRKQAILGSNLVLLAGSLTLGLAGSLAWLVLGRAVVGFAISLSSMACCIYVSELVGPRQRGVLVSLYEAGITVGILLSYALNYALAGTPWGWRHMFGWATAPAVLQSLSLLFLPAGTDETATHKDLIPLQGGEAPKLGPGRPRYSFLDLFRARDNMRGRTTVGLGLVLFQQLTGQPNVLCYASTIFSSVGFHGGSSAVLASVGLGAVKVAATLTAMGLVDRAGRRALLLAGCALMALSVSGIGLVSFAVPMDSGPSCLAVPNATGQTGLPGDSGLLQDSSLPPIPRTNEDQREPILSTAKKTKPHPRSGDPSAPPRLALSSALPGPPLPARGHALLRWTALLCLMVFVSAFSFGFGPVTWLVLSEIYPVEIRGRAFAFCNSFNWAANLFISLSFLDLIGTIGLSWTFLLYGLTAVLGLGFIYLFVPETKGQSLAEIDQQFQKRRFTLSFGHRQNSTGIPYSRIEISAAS

GLUT2 = target: T4, GLUT2 (Homo sapiens, UniProt P11168); assay: as above; conditions: 50 µM 2-deoxyglucose, 4 min; pH 7.3; labelled compound
T4 construct: gene SLC2A2
T4 sequence (P11168 1-524): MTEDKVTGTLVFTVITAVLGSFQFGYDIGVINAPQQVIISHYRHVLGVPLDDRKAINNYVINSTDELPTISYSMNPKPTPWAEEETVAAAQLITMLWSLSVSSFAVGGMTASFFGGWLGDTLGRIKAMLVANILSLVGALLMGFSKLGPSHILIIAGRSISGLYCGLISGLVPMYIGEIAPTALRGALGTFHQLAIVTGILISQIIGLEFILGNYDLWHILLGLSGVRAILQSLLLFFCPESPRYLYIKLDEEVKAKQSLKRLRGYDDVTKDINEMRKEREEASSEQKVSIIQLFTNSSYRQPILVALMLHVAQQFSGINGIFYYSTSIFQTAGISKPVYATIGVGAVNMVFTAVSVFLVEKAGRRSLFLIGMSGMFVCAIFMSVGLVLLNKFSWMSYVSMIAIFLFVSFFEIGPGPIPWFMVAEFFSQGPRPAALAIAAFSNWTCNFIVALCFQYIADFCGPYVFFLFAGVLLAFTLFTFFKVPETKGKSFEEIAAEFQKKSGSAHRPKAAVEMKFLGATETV

GLUT5 = target: T5, GLUT5 (Homo sapiens, UniProt P22732); assay: [3H]-D-fructose uptake in GLUT-expressing HEK293 cells; conditions: 4 µM fructose, 2 min; pH 7.3; labelled compound
T5 construct: gene SLC2A5
T5 sequence (P22732 1-501): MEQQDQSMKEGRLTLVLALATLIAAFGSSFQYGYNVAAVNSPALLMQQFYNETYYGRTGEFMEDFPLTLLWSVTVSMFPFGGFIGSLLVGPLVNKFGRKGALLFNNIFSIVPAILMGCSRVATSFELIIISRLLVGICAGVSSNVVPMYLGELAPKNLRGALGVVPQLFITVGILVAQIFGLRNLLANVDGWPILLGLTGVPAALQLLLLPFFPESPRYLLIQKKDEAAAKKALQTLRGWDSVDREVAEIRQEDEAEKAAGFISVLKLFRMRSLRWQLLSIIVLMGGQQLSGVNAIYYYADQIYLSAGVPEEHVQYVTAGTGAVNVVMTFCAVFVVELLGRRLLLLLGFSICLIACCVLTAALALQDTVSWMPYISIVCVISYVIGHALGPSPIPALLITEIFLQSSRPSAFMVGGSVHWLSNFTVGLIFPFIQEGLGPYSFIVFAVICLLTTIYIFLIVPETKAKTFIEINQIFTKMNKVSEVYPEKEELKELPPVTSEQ

With `Cc1c(NC(=O)c2cc(C(N)=O)nc3cc(F)ccc23)c(C(F)(F)F)nn1Cc1ccc(C#N)cc1` [BAY-876] the IC50 (GLUT4) was 5400 nM, the IC50 (GLUT6) was 2200 nM and the IC50 (GLUT10) was 1700 nM.
In the case of `OC[C@H]1OC(O)C[C@@H](O)[C@@H]1O` (some centres unmarked) [[^3H]-2-deoxyglucose], the “[3H]-2-deoxyglucose uptake in GLUT-expressing HEK293 cells” value (GLUT2) is reported as “HEK293 cells that stably express human GLUT transporters were incubated”.
In the case of `OCC1(O)OC[C@@H](O)[C@@H](O)[C@@H]1O` (stereo partly drawn) [[^3H]-D-fructose], the “[3H]-D-fructose uptake in GLUT-expressing HEK293 cells” value (GLUT5) is reported as “Fructose transport through GLUT5 was not impaired by BAY-876”.
